This assay deals with RSV strain A2. Kind of assay: RSV antiviral cytoprotection assay in Hep2 cells (96-well and 384-well format, Cell TiterGlo read-out). It counts as cell-based, Respiratory Syncytial Virus (RSV). Conditions: human respiratory syncytial virus; for inhibition at 0.5 µM: HEp-2, 0.5 uM, RSV-induced cytopathic effect in Hep2 cells, calculated from fitted dose response curve, normalized to 0% and 100%; for EC50: HEp-2, RSV-induced cytopathic effects, Hep2 cells, class symbols.

The structures appear in SMILES notation.

By inhibition is commonly meant the share of the control response that was lost under treatment. By EC50 is commonly meant the concentration needed to bring the measured effect to its halfway point.

Regarding `Cc1ccc(NS(C)(=O)=O)c(C(=O)N2CCCC[C@H]2c2cc3nc(N4CC[C@H](N)C4)c(C)cn3n2)c1` [Compound 190], the inhibition at 0.5 µM is 100% and the concentration giving a half-maximal response (EC50) fell in the range of 0.1 to 100 nM.

For the compound `C[C@H]1CC[C@@H](c2cc3nc(N4CCC4)cc(N4CCOCC4)n3n2)N(C(=O)c2cc(Cl)ccc2NS(C)(=O)=O)C1` [Compound 143], the inhibition at 0.5 µM is 100% and the concentration for a half-maximal effect (EC50) is 0.1 to 100 nM.

Turning to `Cc1cn2nc([C@@H]3CCCCN3C(=O)c3cc4cccnc4s3)cc2nc1N1CC[C@H](N)C1` [Compound 362], the inhibition at 0.5 µM was 100% and the concentration giving a half-maximal response (EC50) was 0.1 to 100 nM.

Turning to `Cc1cn2nc([C@@H]3CCCCN3C(=O)c3c(Cl)cnn3C(C)C)cc2nc1N1CC[C@H](N)C1` [Compound 382], the inhibition at 0.5 µM is 99% and the EC50 was in the range of 0.1 to 100 nM.

`Cc1nc(C(=O)N2CCCC[C@H]2c2cc3nc(N4CC[C@H](N)C4)c(C)cn3n2)cs1` [Compound 288]: the inhibition at 0.5 µM was 100% and the EC50 lay within 0.1 to 100 nM.

For `CS(=O)(=O)Nc1ccc(Cl)cc1C(=O)N1CCCC[C@H]1c1cc2nc(N3CCC3)cc(N3CCC(O)C3)n2n1` (some centres unmarked) [Compound 57], the inhibition at 0.5 µM was 100% and the half-maximal effective concentration (EC50) lay within 0.1 to 100 nM.

As for `Cc1cn2nc([C@@H]3CCCCN3C(=O)c3cc(Cl)ccc3NS(C)(=O)=O)cc2nc1N1C[C@H](O)[C@@H](O)C1` [Compound 197], the inhibition at 0.5 µM is 100% and the concentration for a half-maximal effect (EC50) lay in the range of 0.1 to 100 nM.

In the case of `Cc1cn2nc([C@@H]3CCCCN3C(=O)c3cccc(C(C)C#N)c3)cc2nc1N1CC[C@H](N)C1` (some centres unmarked) [Compound 351], the inhibition at 0.5 µM is 100% and the EC50 fell in the range of 0.1 to 100 nM.

For `CC(=O)Nc1ccc(Cl)cc1C(=O)N1CCCC[C@H]1c1cc2nc(N3CC[C@H](N)C3)c(C)cn2n1` [Compound 223], the inhibition at 0.5 µM is 100% and the EC50 lay in the range of 0.1 to 100 nM.

On to `Cc1cn2nc([C@@H]3CCCCN3C(=O)c3cccc4ccccc34)cc2nc1N1CC[C@H](N)C1` [Compound 338], for which the inhibition at 0.5 µM is 72% and the EC50 lay within 101 to 1000 nM.

Turning to `Cc1cn2nc([C@@H]3CCCCN3C(=O)c3cc(C)c(F)c(C)c3)cc2nc1N1CC[C@H](N)C1` [Compound 326], the inhibition at 0.5 µM is 100% and the EC50 lay in the range of 0.1 to 100 nM.

Consider `Cc1ccc(C(=O)N2CCCC[C@H]2c2cc3nc(N4CC[C@H](N)C4)c(C)cn3n2)cc1Cl` [Compound 332], for which the inhibition at 0.5 µM was 100% and the half-maximal effective concentration (EC50) lay within 0.1 to 100 nM.

For the compound `Cc1cc(C2CC2)nc2cc([C@@H]3CCCCN3C(=O)C(NS(C)(=O)=O)c3ccccc3)nn12` (some centres unmarked) [Compound 241], the inhibition at 0.5 µM was 99% and the half-maximal effective concentration (EC50) was 0.1 to 100 nM.

In the case of `CS(=O)(=O)Nc1ccc(Cl)cc1C(=O)N1CCCC[C@H]1c1cc2nc(C3CC3)cc(N3CCOCC3)n2n1` [Compound 63], the inhibition at 0.5 µM is 98% and the half-maximal effective concentration (EC50) lay within 0.1 to 100 nM.

As to `CS(=O)(=O)Nc1ccc(Cl)cc1C(=O)N1CCCC[C@H]1c1cc2nc(N3CC(O)C3)cc(N3CCC(O)CC3)n2n1` [Compound 81], the inhibition at 0.5 µM is 100% and the EC50 lay in the range of 0.1 to 100 nM.

On to `Cc1cn2nc([C@@H]3CCCCN3C(=O)c3cn4ccsc4n3)cc2nc1N1CC[C@H](N)C1` [Compound 327], for which the inhibition at 0.5 µM is 100% and the concentration for a half-maximal effect (EC50) was 0.1 to 100 nM.

For `CC(=O)Nc1ccc(C)cc1C(=O)N1CCCC[C@H]1c1cc2nc(N3CC(N)C3)c(C)cn2n1` [Compound 222], the inhibition at 0.5 µM was 100% and the concentration giving a half-maximal response (EC50) was in the range of 0.1 to 100 nM.

As for `Cc1cn2nc([C@@H]3CCCCN3C(=O)c3cc4ccccn4n3)cc2nc1N1CC[C@H](N)C1` [Compound 312], the inhibition at 0.5 µM was 100% and the EC50 was 0.1 to 100 nM.

As for `Cc1cn2nc([C@@H]3CCCCN3C(=O)c3cc(Cl)ccc3NS(C)(=O)=O)cc2nc1N(C)CCO` [Compound 150], the inhibition at 0.5 µM was 97% and the EC50 lay within 0.1 to 100 nM.

Take `Cc1cn2nc([C@@H]3CCCCN3C(=O)c3cccc4c3ccn4C)cc2nc1N1CC[C@H](N)C1` [Compound 349]: the inhibition at 0.5 µM was 100% and the 50% effective concentration (EC50) fell in the range of 0.1 to 100 nM.

Regarding `Cc1cn2nc([C@@H]3CCCCN3C(=O)c3n[nH]c4c3CCC4)cc2nc1N1CC[C@H](N)C1` [Compound 296], the inhibition at 0.5 µM is 49% and the EC50 was in the range of 101 to 1000 nM.

`Cc1cn2nc([C@@H]3CCCCN3C(=O)c3ccc(OC(F)F)cc3)cc2nc1N1CC[C@H](N)C1` [Compound 378]: the inhibition at 0.5 µM is 48% and the 50% effective concentration (EC50) lay within 101 to 1000 nM.

Turning to `CS(=O)(=O)Nc1ccc(Cl)cc1C(=O)N1CCCC[C@H]1c1cc2nc(N3CCC3)ccn2n1` [Compound 43], the inhibition at 0.5 µM is 100% and the concentration for a half-maximal effect (EC50) fell in the range of 0.1 to 100 nM.

As to `CCOc1ccccc1C(=O)N1CCCC[C@H]1c1cc2nc(N3CC[C@H](N)C3)c(C)cn2n1` [Compound 323], the inhibition at 0.5 µM is 100% and the EC50 was 0.1 to 100 nM.

In the case of `Cc1cc(Cl)ccc1C(=O)N1CCCC[C@H]1c1cc2nc(N3CC[C@H](N)C3)c(C)cn2n1` [Compound 333], the inhibition at 0.5 µM is 99% and the concentration for a half-maximal effect (EC50) lay in the range of 0.1 to 100 nM.

With `Cc1cn2nc([C@@H]3CC[C@H](C)CN3C(=O)c3cc(Cl)ccc3NS(C)(=O)=O)cc2nc1N1CC(N)C1` [Compound 137], the inhibition at 0.5 µM was 100% and the EC50 lay within 0.1 to 100 nM.

Turning to `Cc1cn2nc([C@@H]3CCCCN3C(=O)c3nccs3)cc2nc1N1CC[C@H](N)C1` [Compound 268], the inhibition at 0.5 µM is 76% and the half-maximal effective concentration (EC50) was in the range of 101 to 1000 nM.

As for `CS(=O)(=O)Nc1ccc(Cl)cc1C(=O)N1CCCC[C@H]1c1cc2nc(N3CCC3)cc(CN3CCOCC3)n2n1` [Compound 256], the inhibition at 0.5 µM is 87% and the concentration giving a half-maximal response (EC50) is 0.1 to 100 nM.

In the case of `Cc1ccnc(C(=O)N2CCCC[C@H]2c2cc3nc(N4CC[C@H](N)C4)c(C)cn3n2)c1` [Compound 272], the inhibition at 0.5 µM was 100% and the EC50 was in the range of 0.1 to 100 nM.

In the case of `C[C@@H]1CN(c2cc(N3CCC3)nc3cc([C@@H]4CCCCN4C(=O)c4cc(Cl)ccc4NS(C)(=O)=O)nn23)C[C@H](C)N1` [Compound 163], the inhibition at 0.5 µM was 100% and the half-maximal effective concentration (EC50) was in the range of 0.1 to 100 nM.

`Cc1cn2nc([C@@H]3CCCCN3C(=O)c3[nH]c4ccc(F)cc4c3C)cc2nc1N1CC[C@H](N)C1` [Compound 398]: the inhibition at 0.5 µM was 99% and the 50% effective concentration (EC50) was 0.1 to 100 nM.

With `Cc1cn2nc([C@@H]3CCCCN3C(=O)c3cc(Cl)ccc3NS(C)(=O)=O)cc2nc1NCCNCCO` [Compound 235], the inhibition at 0.5 µM is 99% and the EC50 is 0.1 to 100 nM.

In the case of `Cc1cn2nc([C@@H]3CCCCN3C(=O)c3ccc4ccn(C)c4c3)cc2nc1N1CC[C@H](N)C1` [Compound 350], the inhibition at 0.5 µM was 83.6% and the EC50 was in the range of 101 to 1000 nM.

Turning to `Cc1cn2nc([C@@H]3CCCCN3C(=O)c3cncc(Cl)c3)cc2nc1N1CC[C@H](N)C1` [Compound 306], the inhibition at 0.5 µM is 100% and the EC50 was in the range of 0.1 to 100 nM.

Regarding `Cc1cc(C2CC2)nc2cc([C@@H]3CCCCN3C(=O)[C@](C)(NS(C)(=O)=O)c3ccccc3)nn12` [Compound 240], the inhibition at 0.5 µM was 71% and the EC50 was in the range of 101 to 1000 nM.

Regarding `COc1ccsc1C(=O)N1CCCC[C@H]1c1cc2nc(N3CC[C@H](N)C3)c(C)cn2n1` [Compound 308], the inhibition at 0.5 µM is 100% and the concentration giving a half-maximal response (EC50) was 0.1 to 100 nM.

With `Cc1cn2nc([C@@H]3CCCCN3C(=O)c3c(F)ccc(F)c3F)cc2nc1N1CC[C@H](N)C1` [Compound 353], the inhibition at 0.5 µM was 100% and the EC50 fell in the range of 0.1 to 100 nM.

On to `CS(=O)(=O)Nc1ccc(Cl)cc1C(=O)N1CCCC[C@H]1c1cc2nc(N3CCC3)cc(N3CCN[C@@H](CF)C3)n2n1` [Compound 162], for which the inhibition at 0.5 µM is 100% and the EC50 lay within 0.1 to 100 nM.

`C[C@@H]1CN(c2cc(N3CC(O)C3)nc3cc([C@@H]4CCCCN4C(=O)c4cc(Cl)ccc4NS(C)(=O)=O)nn23)C[C@H](C)O1` [Compound 108]: the inhibition at 0.5 µM is 100% and the EC50 lay within 0.1 to 100 nM.

Regarding `Cc1cn2nc([C@@H]3CCCCN3C(=O)c3cccc(-n4cnnc4)n3)cc2nc1N1CC[C@H](N)C1` [Compound 389], the inhibition at 0.5 µM is 98% and the EC50 was 0.1 to 100 nM.

As for `Cc1cc(C)cc(C(=O)N2CCCC[C@H]2c2cc3nc(N4CC[C@H](N)C4)c(C)cn3n2)c1` [Compound 160], the inhibition at 0.5 µM was 100% and the EC50 lay within 0.1 to 100 nM.

Turning to `Cc1cn2nc([C@@H]3CCCCN3C(=O)c3ccccc3-c3ccccc3)cc2nc1N1CC[C@H](N)C1` [Compound 407], the inhibition at 0.5 µM was 92% and the concentration for a half-maximal effect (EC50) fell in the range of 0.1 to 100 nM.

As to `Cc1cn2nc([C@@H]3CCCCN3C(=O)c3ccn(CC(F)F)n3)cc2nc1N1CC[C@H](N)C1` [Compound 356], the inhibition at 0.5 µM was 100% and the EC50 fell in the range of 0.1 to 100 nM.

Regarding `CS(=O)(=O)Nc1ccc(Cl)cc1C(=O)N1CCCC[C@H]1c1cc2nc(N3CCC3)cc(N3CCNC(C(F)(F)F)C3)n2n1` (some centres unmarked) [Compound 159], the inhibition at 0.5 µM is 100% and the EC50 is 0.1 to 100 nM.

As to `Cc1cn2nc([C@@H]3CCCCN3C(=O)c3cc(Cl)ccc3NS(C)(=O)=O)cc2nc1N1C[C@@H](N)C2(CC2)C1` [Compound 201], the inhibition at 0.5 µM was 64% and the 50% effective concentration (EC50) fell in the range of 101 to 1000 nM.

On to `Cc1cn2nc([C@@H]3CCCCN3C(=O)c3cn4ccccc4n3)cc2nc1N1CC[C@H](N)C1` [Compound 311], for which the inhibition at 0.5 µM was 100% and the concentration for a half-maximal effect (EC50) was in the range of 0.1 to 100 nM.

For `CCCn1cc(Cl)c(C(=O)N2CCCC[C@H]2c2cc3nc(N4CC[C@H](N)C4)c(C)cn3n2)n1` [Compound 381], the inhibition at 0.5 µM was 100% and the EC50 was 0.1 to 100 nM.

With `Cc1ccc(NS(C)(=O)=O)c(C(=O)N2Cc3ccccc3C[C@H]2c2cc3nc(C)c(C)cn3n2)c1` [Compound 35], the inhibition at 0.5 µM is 96% and the EC50 was in the range of 0.1 to 100 nM.

As to `Cc1cn2nc([C@@H]3CCCCN3C(=O)c3ccccc3F)cc2nc1N1CC[C@H](N)C1` [Compound 277], the inhibition at 0.5 µM is 98% and the concentration giving a half-maximal response (EC50) is 0.1 to 100 nM.

Values taken from patent US9238039B2, “Pyrazolo[1,5-A]pyrimidines for antiviral treatment” (Gilead Sciences, Inc., priority 2010, dated 2016).
